Results: PubChem BioAssay (NCI)
Where “and” joins values, the source holds several entries; their conditions need not be identical. Equal entries are not always repeated.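 Protocol summary: plate cells (96-well), add compound at 5 concentrations, incubate 48 h, interpolate endpoints linearly. Abbreviation: GI50, concentration required for 50% inhibition of growth. The concentration for full growth arrest is given as TGI.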

Legend:
Assay in all cases: inhibition of tumour cell growth, NCI panel, 48 h
OVCAR-3 ovarian = system: OVCAR-3 ovarian
UO-31 renal = system: UO-31 renal
HL-60(TB) leukemia = system: HL-60(TB) leukemia
SF-539 CNS = system: SF-539 CNS
KM20L2 colon = system: KM20L2 colon
RPMI-8226 leukemia = system: RPMI-8226 leukemia
DMS 114 small cell lung = system: DMS 114 small cell lung
TK-10 renal = system: TK-10 renal
PC-3 prostate = system: PC-3 prostate
MDA-MB-435 = system: MDA-MB-435

Structure (SMILES) | TGI (OVCAR-3 ovarian) | TGI (UO-31 renal) | TGI (HL-60(TB) leukemia) | TGI (SF-539 CNS) | TGI (KM20L2 colon) | TGI (RPMI-8226 leukemia) | TGI (DMS 114 small cell lung) | TGI (TK-10 renal) | GI50 (OVCAR-3 ovarian) | GI50 (UO-31 renal) | GI50 (PC-3 prostate) | TGI (PC-3 prostate) | GI50 (HL-60(TB) leukemia) | GI50 (SF-539 CNS) | GI50 (RPMI-8226 leukemia) | GI50 (MDA-MB-435) | TGI (MDA-MB-435) | GI50 (TK-10 renal)
Cc1cc(N(CCC#N)CCC#N)ccc1/C=C(\NC(=O)/C=C/c1ccccc1)C(=O)Nc1ccccc1Cl | > 100 µM | > 100 µM | > 100 µM | > 100 µM | > 100 µM | > 100 µM | > 100 µM | – | – | – | – | – | – | – | – | – | – | –
COc1cc2c(oc(=O)c3c4occc4cc(OC)c23)c2cccc(O)c12 | > 100 µM | > 100 µM | > 100 µM | > 100 µM | > 100 µM | > 100 µM | > 100 µM | > 100 µM | – | – | – | – | – | – | – | – | – | –
COC(=O)C1=NC(=S)NC(c2ccccc2)C1c1nc2ccccc2o1 (stereo not drawn) | > 50 µM | > 50 µM | > 50 µM | > 50 µM | > 50 µM | > 50 µM | > 50 µM | > 50 µM | – | – | – | – | – | – | – | – | – | –
COC(=O)C(=O)C(C(=O)C(=O)Nc1ccc([N+](=O)[O-])cc1)c1nc2ccccc2[nH]c1=O (stereo not drawn) | > 100 µM | > 100 µM | > 100 µM | – | > 100 µM | > 100 µM | > 100 µM | > 100 µM | – | – | – | – | – | – | – | – | – | –
CC1NOC(=O)C1N=Nc1cccc(Cl)c1 (stereo not drawn) | 60.4 µM | > 100 µM | 56.8 µM | > 100 µM | > 100 µM | – | 61.7 µM | > 100 µM | – | – | – | – | – | – | – | – | – | –
COc1ccc(/C=C/C(=N\NC(=O)c2ccccc2)c2sc(Nc3ccc([N+](=O)[O-])cc3)nc2C)cc1OC | 61.5 µM | 56.6 µM | – | 69.8 µM | 97.6 µM | – | 62.7 µM | 66.5 µM | – | – | – | – | – | – | – | – | – | –
Cc1c(Cl)ccc2c1NC(=O)C2(O)CC(=O)c1ccc(Cl)cc1 (stereo not drawn) | > 100 µM | > 100 µM | > 80.6 µM | > 100 µM | > 100 µM | > 84.3 µM | 37.1 µM | > 100 µM | – | – | – | – | – | – | – | – | – | –
CCOc1ccc(C2=NN(CC)C(=O)C(C3C(=O)N(c4ccccc4)N=C3C)C2)cc1 (stereo not drawn) | > 100 µM | > 100 µM | > 100 µM | > 100 µM | > 100 µM | > 100 µM | > 100 µM | > 100 µM | – | – | – | – | – | – | – | – | – | –
Cc1cc(NCCCCCCCNc2cc(C)nc3cc(N)ccc23)c2ccc(N)cc2n1 | > 100 µM | > 100 µM | 23.9 µM | > 100 µM | > 100 µM | > 100 µM | 32 µM | > 100 µM | – | – | – | – | – | – | – | – | – | –
COC(=O)Cc1cc(=O)n2c3ccccc3n(C)c2c1C#N | > 100 µM | > 100 µM | > 100 µM | > 100 µM | > 100 µM | > 100 µM | > 100 µM | > 100 µM | – | – | – | – | – | – | – | – | – | –
C[N+](C)(C)CC1CCC(C[N+](C)(C)C)C1=NO (stereo not drawn) | > 100 µM | > 100 µM | > 100 µM | > 100 µM | > 100 µM | > 100 µM | – | – | – | – | – | – | – | – | – | – | – | –
CCCC1C[C@H]2CCCCN2[C@H]2CCCN12 (stereo partly drawn) | > 100 µM | > 100 µM | > 64 µM | > 100 µM | > 100 µM | > 63.9 µM | > 86.9 µM | > 100 µM | – | – | – | – | – | – | – | – | – | –
FC(F)(F)c1ccccc1C1SCc2nc3ccccc3n21 (stereo not drawn) | > 100 µM | > 100 µM | 47 µM | > 100 µM | – | > 100 µM | > 100 µM | > 100 µM | – | – | – | – | – | – | – | – | – | –
COC(=O)c1c(C(=O)OC)c(-c2ccccc2)n(-c2ccccc2)c(=O)c1-c1ccccc1 | > 100 µM | > 100 µM | > 100 µM | > 100 µM | > 100 µM | > 100 µM | > 100 µM | > 100 µM | – | – | – | – | – | – | – | – | – | –
O=C(N/C(=C\c1ccc([N+](=O)[O-])cc1)c1nc2ccccc2s1)c1ccccc1 | > 100 µM | 56.3 µM | – | 55.1 µM | > 100 µM | 44.1 µM | 68.4 µM | 61.9 µM | – | – | – | – | – | – | – | – | – | –
COC(=O)CC1(O)C(=O)OCc2c1cc1n(c2=O)Cc2c-1nc1ccccc1c2OC (stereo not drawn) | > 57.4 µM | 30.5 µM | 0.778 µM | 0.681 µM | > 100 µM | 23.2 µM | > 33.1 µM | > 100 µM | – | – | – | – | – | – | – | – | – | –
C=CCNC(=S)NNC(=O)c1c(C)nc2sccn12 | > 100 µM | – | > 100 µM | > 100 µM | > 100 µM | – | > 100 µM | > 100 µM | – | – | – | – | – | – | – | – | – | –
NNc1c(C(N)=O)c2c(N)ncnc2n1C1OC(CO)C(O)C1O (stereo not drawn) | 0.4 µM and 0.335 µM | 0.0959 µM and 0.454 µM | 0.785 µM and 0.125 µM | 1.15 µM and 0.273 µM | – | 0.221 µM and 0.143 µM | – | 1.14 µM and 1.49 µM | 0.0176 µM and 0.0219 µM | < 0.0143 µM and 0.0246 µM | 0.0224 µM and 0.0464 µM | 0.22 µM and 0.304 µM | 0.0665 µM and < 0.0118 µM | 0.0529 µM and 0.0718 µM | 0.0404 µM and 0.0364 µM | 0.0346 µM and 0.0483 µM | 0.148 µM and 0.265 µM | 0.0243 µM and 0.0434 µM
CC(=O)CCC1(c2ccccc2)OC(=O)C(C#N)=C1c1ccccc1 (stereo not drawn) | > 100 µM | > 100 µM | – | > 100 µM | > 100 µM | > 100 µM | > 100 µM | > 100 µM | – | – | – | – | – | – | – | – | – | –
C=C1OC2OC(C)C(NC(=O)OCC(Cl)(Cl)Cl)C(OC(C)=O)C2O1 (stereo not drawn) | > 100 µM | > 100 µM | > 100 µM | > 100 µM | – | > 100 µM | – | > 100 µM | – | – | – | > 100 µM | – | – | – | – | > 100 µM | –
CC[C@H](C)[C@H](NC(=O)[C@H]1CCCCN1C)C(=O)N(C)[C@H](CCc1nc(C(=O)N[C@@H](Cc2ccccc2)C[C@H](C)C(=O)O)cs1)C(C)C | 0.181 µM | > 25 µM | 0.174 µM | 1.14 µM | – | > 25 µM | – | > 25 µM | 0.0371 µM | > 14.1 µM | 0.367 µM | > 25 µM | 0.0553 µM | 0.0888 µM | 0.1 µM | 0.012 µM | 0.0724 µM | > 14.9 µM
COc1ccc(-c2nsc3c2NC(=O)CC3c2ccsc2)cc1 (stereo not drawn) | 0.611 µM | > 100 µM | 20.6 µM | – | – | 21 µM | – | > 100 µM | 0.211 µM | 1.84 µM | 0.334 µM | > 100 µM | 0.143 µM | 0.266 µM | 0.279 µM | 0.0235 µM | 0.0644 µM | 13.8 µM
CCCCCCCCCCCCCCCCCc1nc(Cl)nc(Cl)c1Cl | > 100 µM | > 100 µM | > 100 µM | > 100 µM | – | > 100 µM | – | > 100 µM | – | – | – | > 100 µM | – | – | – | – | > 100 µM | –
CC(C)c1ccc(O)c(Cc2cc(C(C)C)cc(Cc3cc(C(C)C)ccc3O)c2O)c1 | 3.03 µM | 3.04 µM | 4.36 µM | – | 5.55 µM | 4.75 µM | 3.03 µM | 4.72 µM | – | – | – | – | – | – | – | – | – | –
OC12CCC3(OC4CCCCO4)c4ccccc4C3C1c1ccccc12 (stereo not drawn) | – | > 100 µM | > 100 µM | – | > 100 µM | > 100 µM | > 100 µM | > 100 µM | – | – | – | – | – | – | – | – | – | –
